Patent US20100331185A1, “Herbicidal Compositions of Lithium Glyphosate and Adjuvants” (COGNIS IP […], priority 2007, published 2010)
Like-named read-outs stand apart in the source and are kept apart here.

Experiments:
[1] = Procedure: 35.2 g of glyphosate tech (96%, 0.208 mol) was mixed with 20 g water in a flask. 8.4 g of LiOH monohydrate was added to this mixture with good mixing.
[2] = acid form, in water at 25° C.; cited from earlier work

| Structure (SMILES) | product pH (1%) [1] | Li glyphosate Solubility ([1]; solvent: Agnique KE 3658) [mg/mL] | Li glyphosate Solubility ([1]; solvent: Agnique ME 610) [mg/mL] | Li glyphosate Solubility ([1]; solvent: Exxsol D-110) [mg/mL] | Li glyphosate Solubility ([1]; solvent: N-Methyl pyrrolidone) [mg/mL] | Li glyphosate Solubility ([1]; solvent: Water) [mg/mL] | solubility in water [2] [% by weight] |
| --- | --- | --- | --- | --- | --- | --- | --- |
| O=C(O)CNCP(=O)([O-])O.[Li+] [Li glyphosate, lithium glyphosate] | 4.98 | <100 | <50 | <50 | <150 | <200 |  |
| O=C(O)CNCP(=O)(O)O [glyphosate] |  |  |  |  |  |  | 0.16 |
